The record followed here is the NIST ThermoML archive (doi:10.1021/je030216r).

Numbers after ± are expanded uncertainties.

Data set [1] in a line: Boiling temperature at pressure P. The conditions noted are these: 100 kPa; Liquid; Ebulliometric method (Recirculating still).
The nature of data set [2]: refractive index (Na D-line) (dimensionless). To be noted: 293.15 K; 101.33 kPa; Liquid; Standard Abbe refractometry.
The conditions of data set [3]: 293.15 K; 101.33 kPa; Liquid.

By refractive index is commonly meant the speed of light in vacuum divided by its phase velocity in the sample. By mass density is commonly meant mass per unit of volume. Take `OCCO` [1,2-ethanediol]: in data set [1], the “Boiling temperature at pressure P” value is 197.48 ± 0.2 °C. Moreover, the refractive index in data set [2] is on record as 1.4328 ± 0.0008. Besides, the mass density in data set [3] is given as 1113.6 ± 5.1 kg/m3.
On to `CCC(C)CO` (centres undefined) [2-methyl-1-butanol], for which the “Boiling temperature at pressure P” value in data set [1] was 128.40 ± 0.2 °C. Besides, the refractive index in data set [2] was 1.4095 ± 0.0007. Moreover, the mass density in data set [3] stood at 817.8 ± 5 kg/m3.
For the compound `CC(C)CCO` [3-methylbutan-1-ol], the “Boiling temperature at pressure P” value in data set [1] was determined as 131.30 ± 0.2 °C. Also, the refractive index in data set [2] came out at 1.4054 ± 0.0007. For the same compound, the mass density in data set [3] is recorded as 808.1 ± 5 kg/m3.
